Entries after “also recorded” stand apart in the source; their conditions may differ.
How the values were obtained:
Format in all cases: cell-based
[1] = tested on: 60 cell line panel; experiment: NCI 60 cell line screen (SRB), whole panel
Protocol: The screening assay is performed on 96-well microtitre plates. Relatively high initial inoculation densities are used, in order to permit measurement of “time-zero” values and to enhance the screen's ability to detect and provide some differentiation between antiproliferative and cytotoxic response parameters. […] The inoculated microtitre plates are pre-incubated for 24 hours at 37θC prior to drug additions. The five drug dilutions tested routinely range from 10^−4 to 10^−8 molar. Higher or lower concentration ranges may be selected on a nonroutine basis if appropriate solubility and/or prior biological information or other screening data so dictate. Duplicate wells are prepared for all concentrations, (concentration is often denoted by placing brackets around a number); “time-zero” and “no drug” controls are also provided for each test. The minimum amount of compound required for a one-time evaluation in the routine screen can be calculated from the knowledge that each test requires a total of approximately 40 ml (0.04 liter) of cell culture medium containing the highest desired drug concentration. Thus, the amount (grams) of sample required (assuming an upper test concentration limit of 10^−4 M) is: molecular weight of compound×[…]. After a 48 hour incubation (37θC) with the test compound, the cells are fixed in situ to the bottoms of the microtitre wells by addition of 50 ul of either 50% trichloroacetic acid (for adherent cell lines) or 80% trichloroacetic acid (for settled cell suspension lines), followed by incubation for 60 minutes at 4θC. The cellular protein in each well is assayed using a sulforhodamine B (SRB) stain procedure. Briefly, after discarding the supernatants, the microtitre plates are washed 5 times with deionized water and air-dried. One hundred microliters of SRB solution (0.4% w/v in 1% acetic acid) is added to each microtitre well and incubated for 10 minutes at room temperature. Unbound SRB is removed by washing 5 times with 1 % acetic acid. The plates are air-dried, the bound stain is solubilized with Tris buffer, and the optical densities read at 515 nm. SRB is a bright pink anionic dye which, in dilute acetic acid, binds electrostatically to the basic amino acids of TCA-fixed cells. Cryopreserved master stocks of all the lines are maintained, and cultures used for screening are replaced from the master stock after no more than twenty passages in the screening laboratory. The cell line panel consists of 60 lines, organized into nine, disease-related subpanels including leukemia, non-small-cell lung cancer, colon, CNS, melanoma, ovarian, renal, prostate and breast cancers.
The response parameters G150 and LC50 are interpolated values representing the concentrations at which the percentage growth (PG) is +50 and −50, respectively:
GI50 is the concentration for which the PG=+50. At this value the increase from time tzero, in the number or mass of cells in the test well is only 50% as much as the corresponding increase in the control well during this period of the experiment, see Table II. A drug effect of this intensity is interpreted as primary growth inhibition.
TGI is the concentration for which PG=0. At this value the number or mass of cells in the well at the end of the experiment equals the number or mass of cells in the well at time tzero, see Table III. A drug effect of this intensity is regarded as cytostasis.
LC50 is the concentration for which the PG=−50. At this value, the number or mass of cells in the test well at the end of the experiment is half that at time tzero, see Table IV. This is interpreted as cytotoxicity.

[2] = tested on: SNB-19; experiment: NCI 60 cell line screen (SRB), CNS Cancer
[3] = tested on: NCI/ADR-RES; experiment: NCI 60 cell line screen (SRB), Breast Cancer
[4] = tested on: 786-0; experiment: NCI 60 cell line screen (SRB), Renal Cancer
[5] = tested on: IGROVI; experiment: NCI 60 cell line screen (SRB), Ovarian Cancer
[6] = tested on: ACHN; experiment: NCI 60 cell line screen (SRB), Renal Cancer
[7] = tested on: NCI-H522; experiment: NCI 60 cell line screen (SRB), Non-Small Cell Lung Cancer
[8] = tested on: SF-295; experiment: NCI 60 cell line screen (SRB), CNS Cancer
[9] = tested on: HCC-2998; experiment: NCI 60 cell line screen (SRB), Colon Cancer
[10] = tested on: HT29; experiment: NCI 60 cell line screen (SRB), Colon Cancer
[11] = tested on: HCT-15; experiment: NCI 60 cell line screen (SRB), Colon Cancer
[12] = tested on: LOX IMVI; experiment: NCI 60 cell line screen (SRB), Melanoma
[13] = tested on: SK-MEL-5; experiment: NCI 60 cell line screen (SRB), Melanoma
[14] = tested on: MALME-3M; experiment: NCI 60 cell line screen (SRB), Melanoma
[15] = tested on: RXF 393; experiment: NCI 60 cell line screen (SRB), Renal Cancer
[16] = tested on: NCI-H322M; experiment: NCI 60 cell line screen (SRB), Non-Small Cell Lung Cancer
[17] = tested on: OVCAR-5; experiment: NCI 60 cell line screen (SRB), Ovarian Cancer
[18] = tested on: SN12C; experiment: NCI 60 cell line screen (SRB), Renal Cancer
[19] = tested on: OVCAR-8; experiment: NCI 60 cell line screen (SRB), Ovarian Cancer
[20] = tested on: HOP-62; experiment: NCI 60 cell line screen (SRB), Non-Small Cell Lung Cancer

CC1=C(C=Cc2cccc(C=CC3=C(C)C4CCC(C)C5CCC6(C)OOC45C(O3)O6)c2)OC2OC3(C)CCC4C(C)CCC1C24OO3 (stereo not shown) [VII-f]
MG MID of Log10GI50 (Table IV) ([1]; Table IV (LC50), mean over the panel): −4.23 log10M | Delta of Log10GI50 (Table IV) ([1]; Table IV (LC50), panel summary): 1.70 | Range of Log10GI50 (Table IV) ([1]; Table IV (LC50), panel summary): 1.93 | potency in words, compared with artemisinin and paclitaxel ([1]; Tables II, III and IV): in most instances are as potent and in some instances more potent than paclitaxel; also recorded: more potent than artemisinin and equivalent to and in many instances higher in potency than paclitaxel | MG MID of Log10GI50 ([1]; mean over the panel): −5.73 log10M | MG MID of Log10TGI ([1]; mean over the panel): −4.23 log10M | Delta of Log10GI50 ([1]; panel summary): 0.98 | Delta of Log10TGI ([1]; panel summary): 1.70 | Range of Log10GI50 ([1]; panel summary): 2.71 | Range of Log10TGI ([1]; panel summary): 1.93 | Log10TGI ([2]; PG=0): >−4.33 log10M | Log10GI50 or Log10LC50 (see condition) ([2]; PG=+50): −5.85 log10M | Log10GI50 or Log10LC50 (see condition) ([2]; Table IV (LC50, PG=−50)): >−4.33 log10M | Log10TGI ([3]; PG=0): −4.34 log10M | Log10GI50 ([3]; PG=+50): −5.29 log10M | Log10GI50 ([3]; Table IV (LC50, PG=−50)): >−4.00 log10M | Log10TGI ([4]; PG=0): >−4.00 log10M | Log10GI50 ([4]; PG=+50): −5.40 log10M | Log10GI50 ([4]; Table IV (LC50, PG=−50)): >−4.00 log10M | Log10TGI ([5]; PG=0): >−4.00 log10M | Log10GI50 ([5]; PG=+50): −4.55 log10M | Log10GI50 ([5]; Table IV (LC50, PG=−50)): >−4.00 log10M | Log10TGI ([6]; PG=0): >−4.00 log10M | Log10 GI50 or LC50 (see conditions) ([6]; PG=+50): −5.71 log10M | Log10 GI50 or LC50 (see conditions) ([6]; Table IV (LC50, PG=−50)): >−4.00 log10M | Log10TGI ([7]; PG=0): >−4.00 log10M | Log10GI50 ([7]; PG=+50): −6.07 log10M | Log10GI50 ([7]; Table IV (LC50, PG=−50)): >−4.00 log10M | Log10TGI ([8]; PG=0): >−4.00 log10M | Log10GI50 ([8]; PG=+50): −5.25 log10M | Log10TGI ([9]; PG=0): >−4.00 log10M | Log10GI50 ([9]; PG=+50): −5.59 log10M | Log10TGI ([10]; PG=0): >−4.00 log10M | Log10GI50 ([10]; PG=+50): −5.90 log10M | Log10GI50 ([10]; Table IV (LC50, PG=−50)): >−4.00 log10M | Log10TGI ([11]; PG=0): −4.82 log10M | log10 GI50 (PG=+50) or LC50 (PG=−50), per row condition ([11]; PG=+50): −6.13 log10M | log10 GI50 (PG=+50) or LC50 (PG=−50), per row condition ([11]; Table IV (LC50, PG=−50)): >−4.00 log10M | Log10TGI ([12]; PG=0): >−4.00 log10M | Log10GI50 ([12]; PG=+50): −5.79 log10M | Log10GI50 ([12]; Table IV (LC50, PG=−50)): >−4.00 log10M | Log10TGI ([13]; PG=0): −4.93 log10M | Log10 GI50 or LC50 ([13]; PG=+50): −5.80 log10M | Log10 GI50 or LC50 ([13]; Table IV (LC50, PG=−50)): >−4.00 log10M | Log10TGI ([14]; PG=0): −4.82 log10M | Log10GI50 ([14]; PG=+50): −5.65 log10M | Log10GI50 ([14]; Table IV (LC50, PG=−50)): >−4.00 log10M | Log10TGI ([15]; PG=0): >−4.00 log10M | Log10GI50 ([15]; PG=+50): −5.91 log10M | Log10GI50 ([15]; Table IV (LC50, PG=−50)): >−4.00 log10M | Log10TGI ([16]; PG=0): −4.39 log10M | Log10GI50 ([16]; PG=+50): −6.05 log10M | Log10TGI ([17]; PG=0): >−4.00 log10M | Log10GI50 ([17]; PG=+50): −6.04 log10M | Log10GI50 ([17]; Table IV (LC50, PG=−50)): >−4.00 log10M | Log10TGI ([18]; SN12C, PG=0): >−4.00 log10M | Log10GI50 ([18]; SNI2C, PG=+50): −5.73 log10M | Log10GI50 ([18]; Table IV (LC50, PG=−50), SN12C): >−4.00 log10M | Log10TGI ([19]; PG=0): −4.21 log10M | Log10GI50 ([19]; PG=+50): −5.57 log10M | Log10GI50 ([19]; Table IV (LC50, PG=−50)): >−4.00 log10M | Log10TGI ([20]; PG=0): >−4.00 log10M | Log10GI50 ([20]; PG=+50): −5.77 log10M | Log10GI50 ([20]; Table IV (LC50, PG=−50)): >−4.00 log10M

From patent publication US20020055528A1, “Artemisinin analogs having antimalarial, antiproliferative, and antitumor activities and chemoselective methods of making the same” (priority 1999, published 2002)
